Laboratory results taken from EP4759807A1, “PROTEOLYSIS TARGETING CHIMERA COMPOUND FOR DEGRADING IRAK4 AND USE THEREOF” (Shenzhen Zhongge Biological Technology Co., Ltd., priority 2023, dated 2025).
Structures can show the parent of a compound that is named as a salt. Where two headings read alike, the source gives them in different places.

Target: T1, IRAK4 (Homo sapiens, UniProt Q9NWZ3)
T1 sequence (Q9NWZ3 1-460): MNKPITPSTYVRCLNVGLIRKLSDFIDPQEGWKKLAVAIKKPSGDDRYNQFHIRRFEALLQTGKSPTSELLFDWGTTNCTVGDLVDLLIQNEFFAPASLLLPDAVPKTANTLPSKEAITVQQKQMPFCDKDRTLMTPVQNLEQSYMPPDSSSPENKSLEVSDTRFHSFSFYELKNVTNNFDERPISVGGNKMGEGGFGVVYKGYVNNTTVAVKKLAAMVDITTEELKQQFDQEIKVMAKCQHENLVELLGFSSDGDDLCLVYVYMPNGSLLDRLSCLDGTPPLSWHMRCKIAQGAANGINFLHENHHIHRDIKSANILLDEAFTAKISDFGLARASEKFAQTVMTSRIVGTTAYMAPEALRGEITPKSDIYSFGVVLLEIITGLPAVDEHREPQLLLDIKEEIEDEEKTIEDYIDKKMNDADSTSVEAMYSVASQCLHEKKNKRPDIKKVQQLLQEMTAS
Assay: Hibit fluorescence detection of proteolysis (IRAK4-HiBiT in HEK293T cells)
Type: cell-based
Set-up: host or cells: HEK293T (ATCC)
Settings: for Dmax: HEK-293T
How it was run: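 Degradation read-out: luminescence from lytic HiBiT detection (15 min, room temperature) after 24 h compound exposure (37 °C, 5% CO2) of HEK293T cells transiently expressing IRAK4 fused to a HiBiT tag. Data fitted to a bell-shaped four-parameter model giving two EC50 values.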

[1] = IRAK4-HiBiT, HEK293T cells, 24 h
[2] = IRAK4-HiBiT, HEK293T cells, 24 h, read-out: DC50

Row | Dmax (IRAK4-HiBiT, HEK293T cells, 24 h, read-out: Dmax) | SMILES | Dmax | DC50 [1] | DC50 [2]
1 |  | C[C@H](C#Cc1cccc2c1n(C)c(=O)n2C1CCC(=O)NC1=O)OC1CCN(C[C@H]2CC[C@H](n3cc(-n4cc(-c5cnn6ccc(N7CCOCC7)nc56)nn4)c(C(F)F)n3)CC2)CC1 (stereo partly drawn) [Example 1, 3-(4-((R)-3-((1-(((1r,4R)-4-(3-(difluoromethyl)-4-(4-(5-morpholinopyrazolo[1,5-a]pyrimidin-3-yl)-1H-1,2,3-triazol-1-yl)-1H-pyrazol-1-yl)cyclohexyl)methyl)piperidin-4-yl)oxy)but-1-yn-1-yl)-3-methyl-2-oxo-2,3-dihydro-1H-benzo[d]imidazol-1-yl)piperidine-2,6-dione] | < 60% | < 500 pM | 
2 |  | C[C@H]1CN(c2cccc3c2n(C)c(=O)n3C2CCC(=O)NC2=O)CCN1C[C@H]1CC[C@H](n2cc(-n3cc(-c4cnn5ccc(N6CCOCC6)nc45)nn3)c(C(F)F)n2)CC1 (stereo partly drawn) [Example 52] | 70 to 80% | 500 to 1000 pM | 
3 |  | Cn1c(=O)n(C2CCC(=O)NC2=O)c2cccc(N3CCC4(CCN(C[C@H]5CC[C@H](n6cc(-n7cc(-c8cnn9ccc(NCC%10CC%10)nc89)nn7)c(C(F)F)n6)CC5)CC4)C3)c21 (stereo partly drawn) [Example 109] | > 80% | 500 to 1000 pM | 
4 |  | Cn1c(=O)n(C2CCC(=O)NC2=O)c2cccc(NC(=O)CN3CCN(C[C@H]4CC[C@H](n5cc(-n6cc(-n7ccc8cc(C(N)=O)cnc87)nn6)c(C(F)F)n5)CC4)CC3)c21 (stereo partly drawn) [Example 107, 1-(1-(3-(difluoromethyl)-1-((1r,4r)-4-((4-(2-((1-(2,6-dioxopiperidin-3-yl)-3-methyl-2-oxo-2,3-dihydro-1H-benzo[d]imidazol-4-yl)amino)-2-oxoethyl)piperazin-1-yl)methyl)cyclohexyl)-1H-pyrazol-4-yl)-1H - 1,2,3-triazol-4-yl)-1H-pyrrolo[2,3-b]pyridine-5-carboxamide] | > 80% | 1000 to 5000 pM | 
5 | < 60% | NC(=O)c1cnn2c(-c3cn(-c4cn(C5CCN(CC6CCN(c7ccc(C(=O)NC8CCC(=O)NC8=O)c(F)c7)CC6)CC5)nc4C(F)F)nn3)ccc2c1 (stereo not drawn) [Example 95, 7-{1-[3-(difluoromethyl)-1-{1-[(1-{4-[(2,6-dioxopiperidin-3-yl)aminocarbonyl]-3-fluorophenyl}piperidin-4-yl)methyl]piperidin-4-yl}-1H-pyrazol-4-yl]-1H-1,2,3-triazol-4-yl}pyrrolo[1,2-b]pyridazine-3-carboxamide] |  |  | > 5000 pM
6 |  | C[C@@H]1CN(C[C@H]2CC[C@H](n3cc(-n4cc(-c5cnn6ccc(N7CCOCC7)nc56)nn4)c(C(F)F)n3)CC2)CCN1c1cccc2c1n(C)c(=O)n2C1CCC(=O)NC1=O (stereo partly drawn) [Example 46, 3-(4-((R)-4-(((1r,4R)-4-(3-(difluoromethyl)-4-(4-(5-morpholinopyrazolo[1,5-a]pyrimidin-3-yl)-1H-1,2,3-triazol-1-yl)-1H-pyrazol-1-yl)cyclohexyl)methyl)-2-methylpiperazin-1-yl)-3-methyl-2-oxo-2,3-dihydro-1H-benzo[d]imidazol-1-yl)piperidine-2,6-dione] | 70 to 80% | < 500 pM | 
7 |  | Cn1c(=O)n(C2CCC(=O)NC2=O)c2cccc(N3CCN(C4CCN(C[C@H]5CC[C@H](n6cc(-n7cc(-c8cnn9ccc(NCCC(C)(C)O)nc89)nn7)c(C(F)F)n6)CC5)CC4)CC3)c21 (stereo partly drawn) [Example 133] | > 80% | < 500 pM | 
8 |  | Cn1c(=O)n(C2CCC(=O)NC2=O)c2cccc(N3CCC4(CCN(C[C@H]5CC[C@H](n6cc(-n7cc(-c8cnn9ccc(N%10CCNCC%10)nc89)nn7)c(C(F)F)n6)CC5)CC4)CC3)c21 (stereo partly drawn) [Example 129, 3-(4-(9-(((1r,4r)-4-(3-(difluoromethyl)-4-(4-(5-(piperazin-1-yl)pyrazolo[1,5-a]pyrimidin-3-yl)-1H-1,2,3-triazol-1-yl)-1H-pyrazol-1-yl)cyclohexyl)methyl)-3,9-diazaspiro[5.5]undecan-3-yl)-3-methyl-2-oxo-2,3-dihydro-1H-benzo[d]imidazol-1-yl)piperidine-2,6-dione dihydrochloride] | > 80% | < 500 pM | 
9 |  | CN1CCN(c2ccn3ncc(-c4cn(-c5cn([C@H]6CC[C@H](CN7CCN(c8cccc9c8n(C)c(=O)n9C8CCC(=O)NC8=O)CC7)CC6)nc5C(F)F)nn4)c3n2)CC1 (stereo partly drawn) [Compound 227] | 60 to 70% |  | 1000 to 5000 pM
10 |  | Cn1c(=O)n(C2CCC(=O)NC2=O)c2cccc(N3CCN(C4CCN(C[C@H]5CC[C@H](n6cc(-n7cc(-c8cnn9ccc(N[C@H]%10CCCC[C@H]%10O)nc89)nn7)c(C(F)F)n6)CC5)CC4)CC3)c21 (stereo partly drawn) [Example 149] | > 80% | < 500 pM | 
11 |  | Cn1c(=O)n(C2CCC(=O)NC2=O)c2cccc(N3CCC4(CCN(C[C@H]5CC[C@H](n6cc(-n7cc(-c8cnn9cc(C#N)cnc89)nn7)c(C(F)F)n6)CC5)CC4)C3)c21 (stereo partly drawn) [Compound 202] | < 60% |  | 500 to 1000 pM
12 |  | Cn1c(=O)n(C2CCC(=O)NC2=O)c2cccc(N3CC(N4CCN(C[C@H]5CC[C@H](n6cc(-n7cc(-c8ccc9cc(C(N)=O)cnn89)nn7)c(C(F)F)n6)CC5)CC4)C3)c21 (stereo partly drawn) [Example 63, 7-(1-(3-(difluoromethyl)-1-((1r,4r)-4-((4-(1-(1-(2,6-dioxopiperidin-3-yl)-3-methyl-2-oxo-2,3-dihydro-1H-benzo[d]imidazol-4-yl)azetidin-3-yl)piperazin-1-yl)methyl)cyclohexyl)-1H-pyrazol-4-yl)-1H-1,2,3-triazol-4-yl)pyrrolo[1,2-b]pyridazine-3-carboxamide] | 60 to 70% | < 500 pM | 
13 |  | O=C1CCC(N2C(=O)c3ccc(N4CC(CN5CCC(n6cc(-n7cc(-c8cnn9ccc(N%10CCOCC%10)nc89)nn7)c(C(F)F)n6)CC5)C4)cc3C2=O)C(=O)N1 (stereo not drawn) [Example 78] | 70 to 80% | 1000 to 5000 pM | 
14 |  | Cn1c(=O)n(C2CCC(=O)NC2=O)c2cccc(NC[C@H]3CC[C@H](N(C)C[C@H]4CC[C@H](n5cc(-n6cc(-c7cnn8ccc(N9CCOCC9)nc78)nn6)c(C(F)F)n5)CC4)CC3)c21 (stereo partly drawn) [Example 24, 3-(4-((((1R,4r)-4-((((1r,4R)-4-(3-(difluoromethyl)-4-(4-(5-morpholinopyrazolo[1,5-a]pyrimidin-3-yl)-1H-1,2,3-triazol-1-yl)-1H-pyrazol-1-yl)cyclohexyl)methyl)(methyl)amino)cyclohexyl)methyl)amino)-3-methyl-2-oxo-2,3-dihydro-1H-benzo[d]imidazol-1-yl)piperidine-2,6-dione] | < 60% | < 500 pM | 
15 |  | C[C@H]1CN(c2cccc3c2n(C)c(=O)n3C2CCC(=O)NC2=O)CCN1C[C@H]1CC[C@H](n2cc(-n3cc(-c4cnn5ccc(N6CCC(C)(O)CC6)nc45)nn3)c(C(F)F)n2)CC1 (stereo partly drawn) [Example 284] | 70 to 80% | < 500 pM | 
